Earlier results in US20030004143A1, “Use of NSAIDs for prevention and treatment of cellular abnormalities of the female reproductive tract” (priority 2001, published 2003).

Tests used:
OPC cell lines = settings: all OPC cell lines tested

O=C(c1ccccc1)c1ccc2n1CCC2C(=O)O (stereo not shown) [ketorolac, (.+−.)5(benzoyl)-2,3-dihydro-1H-pyrrolizine-1carboxylic acid]
IL-6 levels (OPC cell lines): continuously and significantly decreased
IL-8 levels (OPC cell lines): continuously and significantly decreased
PGE2 production (OPC cell lines): continuously and significantly decreased
OPC growth in vivo (OPC): reduced OPC growth in vivo
